Measurements as given in US8729082B2, “Substituted imidazoquinoxalines” (Bayer Intellectual Property GmbH, priority 2009, dated 2014).

biological target: T1, human kinase Mps-1 (Homo sapiens, UniProt P33981); assay: Mps-1 kinase assay (HTRF); format: biochemical; conditions: lowATP; mean; read-out: Mps1 lowATP mean IC50
T1 construct: N-terminally GST-tagged human full length recombinant Mps-1 kinase; purchased Invitrogen, Karslruhe, Germany PV4071
T1 sequence (P33981 1-857): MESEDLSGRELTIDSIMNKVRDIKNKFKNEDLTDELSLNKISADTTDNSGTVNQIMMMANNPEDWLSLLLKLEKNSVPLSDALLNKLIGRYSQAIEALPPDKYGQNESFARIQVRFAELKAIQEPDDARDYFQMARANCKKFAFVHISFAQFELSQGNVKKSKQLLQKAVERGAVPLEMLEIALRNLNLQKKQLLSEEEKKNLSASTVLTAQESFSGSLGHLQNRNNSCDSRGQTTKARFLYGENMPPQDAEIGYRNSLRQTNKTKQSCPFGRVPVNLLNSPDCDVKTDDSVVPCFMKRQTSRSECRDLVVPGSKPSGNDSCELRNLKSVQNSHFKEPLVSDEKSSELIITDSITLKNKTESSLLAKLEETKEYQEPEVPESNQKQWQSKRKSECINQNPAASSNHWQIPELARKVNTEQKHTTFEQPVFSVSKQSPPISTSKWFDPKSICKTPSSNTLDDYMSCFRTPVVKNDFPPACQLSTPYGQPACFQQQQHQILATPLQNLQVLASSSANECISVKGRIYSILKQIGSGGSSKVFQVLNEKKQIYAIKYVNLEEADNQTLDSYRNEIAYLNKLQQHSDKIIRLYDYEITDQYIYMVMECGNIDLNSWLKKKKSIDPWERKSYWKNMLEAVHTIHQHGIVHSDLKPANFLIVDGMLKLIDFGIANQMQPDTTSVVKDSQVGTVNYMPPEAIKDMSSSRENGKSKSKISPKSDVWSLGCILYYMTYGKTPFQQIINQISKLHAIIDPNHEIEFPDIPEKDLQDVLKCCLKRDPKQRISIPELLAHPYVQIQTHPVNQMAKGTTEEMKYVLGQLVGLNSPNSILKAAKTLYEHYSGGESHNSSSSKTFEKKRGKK
How it was run: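 HTRF readout: EDTA-stopped reactions incubated 1 h with europium anti-phospho(Ser/Thr) antibody and streptavidin-XLent, emission ratio 665/620 nm after 350 nm excitation. Kinase step: compound pre-bound 15 min to ~1 nM GST-Mps-1, then 60 min at 22 °C with ATP and biotin-peptide substrate; inhibition scaled between no-inhibitor (0%) and no-enzyme (100%) controls.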

IC50 [nM]	SMILES
93.7	O=C(NC1CC1)c1ccc(-c2cnc3c(NCC(F)(F)F)nc4cc(F)c(F)cc4n23)cc1 [Example 2-97, N-cyclopropyl-4-{7,8-difluoro-4-[(2,2,2-trifluoroethyl)amino]imidazo[1,2-a]quinoxalin-1-yl}benzamide]
62.2	O=C(NC1CC1)c1ccc(-c2cnc3c(NCc4cccs4)nc4cc(F)c(F)cc4n23)cc1 [Example 2-98, N-cyclopropyl-4-{7,8-difluoro-4-[(thiophen-2-ylmethyl)amino]imidazo[1,2-a]quinoxalin-1-yl}benzamide]
59.8	CCNc1nc2cc(F)c(F)cc2n2c(-c3ccc(C(=O)NC4CC4)cc3)cnc12 [Example 2-99, N-cyclopropyl-4-[4-(ethylamino)-7,8-difluoroimidazo[1,2-a]quinoxalin-1-yl]benzamide]
75.3	O=C(NC1CC1)c1ccc(-c2cnc3c(NCCCO)nc4cc(F)c(F)cc4n23)cc1 [Example 2-100, N-cyclopropyl-4-{7,8-difluoro-4-[(3-hydroxypropyl)amino]imidazo[1,2-a]quinoxalin-1-yl}benzamide]
28.3	CCCCNc1nc2cc(F)c(F)cc2n2c(-c3ccc(C(=O)NC4CC4)cc3)cnc12 [Example 2-101, 4-[4-(butylamino)-7,8-difluoroimidazo[1,2-a]quinoxalin-1-yl]-N-cyclopropylbenzamide]
584	CC(=O)NCCNc1nc2cc(F)c(F)cc2n2c(-c3ccc(C(=O)NC4CC4)cc3)cnc12 [Example 2-102, 4-(4-{[2-(acetylamino)ethyl]amino}-7,8-difluoroimidazo[1,2-a]quinoxalin-1-yl)-N-cyclopropylbenzamide]
229	O=C(NC1CC1)c1ccc(-c2cnc3c(NCCCn4ccnc4)nc4cc(F)c(F)cc4n23)cc1 [Example 2-103, N-cyclopropyl-4-(7,8-difluoro-4-{[3-(1H-imidazol-1-yl)propyl]amino}imidazo[1,2-a]quinoxalin-1-yl)benzamide]
34.1	O=C(NC1CC1)c1ccc(-c2cnc3c(NCC4CC4)nc4cc(F)c(F)cc4n23)cc1 [Example 2-104, N-cyclopropyl-4-{4-[(cyclopropylmethyl)amino]-7,8-difluoroimidazo[1,2-a]quinoxalin-1-yl}benzamide]
52.8	O=C(NC1CC1)c1ccc(-c2cnc3c(NCc4ccco4)nc4cc(F)c(F)cc4n23)cc1 [Example 2-105, N-cyclopropyl-4-{7,8-difluoro-4-[(furan-2-ylmethyl)amino]imidazo[1,2-a]quinoxalin-1-yl}benzamide]
24.5	CC(C)CNc1nc2cc(F)c(F)cc2n2c(-c3ccc(C(=O)NC4CC4)cc3)cnc12 [Example 2-106, N-cyclopropyl-4-{7,8-difluoro-4-[(2-methylpropyl)amino]imidazo[1,2-a]quinoxalin-1-yl}benzamide]
233	NC(=O)CCNc1nc2cc(F)c(F)cc2n2c(-c3ccc(C(=O)NC4CC4)cc3)cnc12 [Example 2-107, 4-{4-[(3-amino-3-oxopropyl)amino]-7,8-difluoroimidazo[1,2-a]quinoxalin-1-yl}-N-cyclopropylbenzamide]
114	COCCCNc1nc2cc(F)c(F)cc2n2c(-c3ccc(C(=O)NC4CC4)cc3)cnc12 [Example 2-108, N-cyclopropyl-4-{7,8-difluoro-4-[(3-methoxypropyl)amino]imidazo[1,2-a]quinoxalin-1-yl}benzamide]
256	Cn1ccc(CNc2nc3cc(F)c(F)cc3n3c(-c4ccc(C(=O)NC5CC5)cc4)cnc23)n1 [Example 2-109, N-cyclopropyl-4-(7,8-difluoro-4-{[(1-methyl-1H-pyrazol-3-yl)methyl]amino}imidazo[1,2-a]quinoxalin-1-yl)benzamide]
28.5	Cn1nccc1CNc1nc2cc(F)c(F)cc2n2c(-c3ccc(C(=O)NC4CC4)cc3)cnc12 [Example 2-110, N-cyclopropyl-4-(7,8-difluoro-4-{[(1-methyl-1H-pyrazol-5-yl)methyl]amino}imidazo[1,2-a]quinoxalin-1-yl)benzamide]
